Where “and” joins values, the source holds several entries; their conditions need not be identical. Equal entries are not always repeated. Structures can show the parent of a compound that is named as a salt.

The nature of data set [1]: Apparent encapsulation efficiency (ε) of solutes in vesicles by SEC and UV-vis. It counts as physicochemical. To be noted: 1 wt% surfactant, 1 mM solute; for ε (Apparent Encapsulation Efficiency) CTAT-Rich V^+: V^+ vesicles 7:3 w/w CTAT:SDBS; for ε (Apparent Encapsulation Efficiency) SDBS-Rich V^−: V^− vesicles 3:7 w/w CTAT:SDBS. The protocol: For the determination of encapsulation efficiencies, vesicles were prepared using aqueous solutions containing 1.0 mM carboxyfluorescein (CF) dye. The formation of CTAT-rich vesicles (7:3 CTAT to SDBS w/w) appeared to be inhibited at CF concentrations of 5 mM or greater. High concentrations of CF (and similarly, other solutes) tended to disrupt the vesicles and lead to precipitation over time. Vesicle stability appeared to be unaffected when the solute concentration is kept below 5 mM, and at these concentrations solute encapsulation does occur. For CF, a pH ˜9 was required in order to fully dissolve the dye, and the stock solutions were adjusted accordingly. The CF/CTAT/SDBS solutions were stirred for 15-30 min and the resulting vesicle solutions were allowed to equilibrate in the dark at room temperature for at least 48 h. Dynamic light scattering (DLS) was then used to confirm vesicle formation. SDBS-rich vesicles (e.g., 3:7 CTAT to SDBS w/w) could be prepared with higher CF concentrations (up to ca. 100 mM); however CF encapsulation in these vesicles was reduced relative to that of CTAT-rich vesicles and in many cases CF encapsulation by SDBS-rich vesicles (i.e., the formation of distinct bands in the chromatography column, see below) was not achieved.
(§1) The apparent encapsulation efficiencies of the two vesicle preparations, V^+ and V^−, were also evaluated for the other solute molecules shown in FIG. 9. A solute concentration of 1 mM was used in all cases. Lucifer yellow (LY) is dianionic in water and Sulforhodamine 101 (SR101) is monanionic. […] Doxorubicin hydrochloride (Dox) is a cationic drug with a pKa of ˜7.619 that has been used to treat a variety of cancers. […] In each case, vesicles were prepared using aqueous solutions of the solute at a concentration of 1 mM. The solute/CTAT/SDBS mixtures were stirred for 30-60 min, or overnight, and the resulting vesicle solutions were allowed to equilibrate in the dark at room temperature for at least 48 h. Thereafter, the samples were passed through a 25 mm syringe filter (0.45 μm mesh) to remove any impurities. Dynamic light scattering was conducted to confirm vesicle formation and to measure the average vesicle size.
To measure the apparent encapsulation efficiency ε, size exclusion chromatography (SEC) was used to separate the free solute from that encapsulated by the vesicles. A 2×25 cm column packed with Sephadex G50 resin (medium mesh, Amersham Biosciences) or a 1.3 cm×21 cm SEC column packed with Sephadex G50 resin (medium mesh, from Amersham Biosciences) was used. An aliquot of the vesicle-solute sample was run through the SEC column.
During elution, vesicle solutions divided into bands that were visible with the naked eye or by UV lamp, e.g., in the case of CF dye containing vesicles, two clear bands, the leading band containing the dye-bearing vesicles and the second band containing the free dye. During elution, fractions were collected and analyzed, and a series of such fractions for a typical experiment is shown in FIG. 6 (the solute in FIG. 6 is CF). The band containing the vesicles was collected for further studies of vesicle leakage, as described below. Dynamic light scattering was used to determine which of the eluted fractions contained vesicles, and the vesicles were consistently found to elute at 5.5 ml, total elution volume.
The amount of solute in each fraction was determined using UV-vis spectroscopy (Hitachi U-3010 Spectrometer). The encapsulation efficiency (ε) value is defined as the amount of encapsulated solute relative to the total initial amount of solute:
V designates volume, A designates absorbance, i denotes initial values taken from the original preparation, and f denotes values taken from the fractions eluted from the SEC column shown by dynamic light scattering to contain vesicles. Thus, the value of ε gives percentage of dye that is captured by the vesicles during their preparation. […]
Background: SEC sorts molecules by how far they enter the pores of the column.

Data set [2] can be described thus: Separation of oppositely charged solute mixtures with catanionic vesicles by SEC. The class given is physicochemical. The following applies: for Separation of LY and Dox by catanionic vesicles in SEC: total compound concentration 1 mM; for Dye carried through SEC column within the V^+ vesicle band / Dye in the V^− vesicle band emerging from SEC column: equimolar CF and R6G, total dye 0.5 mM; for Dye carried through SEC column within the V^+ vesicle band: V^+ vesicles; for Dye in the V^− vesicle band emerging from SEC column: V^− vesicles. As for the experimental part:
Catanionic vesicles were prepared with equimolar mixtures of two solutes, the cationic organic dye rhodamine 6G (R6G) and the anionic dye carboxyfluorescein (CF). The total solute concentration was maintained at either 0.5 or 1.0 mM, and experiments were done with both positively charged vesicles (V^+) (excess of cationic CTAT) and negatively charged vesicles (V^−) (excess of anionic SDBS) formed from cetyltrimethylammonium tosylate (CTAT) and sodium dodecylbenzenesulfonate (SDBS).
Experiments with these solute mixtures were performed and analyzed by performing size exclusion chromatography on the sample and measuring the dye concentration of each fraction to obtain an apparent encapsulation value, ε, for each dye (see below). The dye concentration in each fraction was determined by UV-vis spectroscopy. To account for the overlapping of the dye spectra, we subtracted a scaled spectrum of pure R6G from the total spectrum in order to find the peak absorbance of CF.

Data set [3] can be described thus: Vesicle radius by dynamic light scattering (DLS). It counts as physicochemical. The following applies: for Vesicle Radius after SEC by DLS CTAT-Rich V^+: V^+ vesicles with 1 mM solute; for Vesicle Radius after SEC by DLS SDBS-Rich V^−: V^− vesicles with 1 mM solute. The protocol: Vesicle sizes in solution were monitored using dynamic light scattering (DLS) on a Photocor-FC instrument. The light source was a 5 mW laser at 633 nm and the scattering angle was 90°. A logarithmic correlator was used to obtain the autocorrelation function, which was analyzed by the method of cumulants to yield a diffusion coefficient. The apparent hydrodynamic size of the vesicles was obtained from the diffusion coefficient through the Stokes-Einstein relationship. The intensity (total counts) of the signal was also recorded for each sample.
as §1
A low solute concentration, e.g., 1 mM, was used in the experiments to ensure the stability of our vesicle formulations. […] Even at a concentration of 1 mM, some solutes may have a large effect on vesicle morphology. To study these aspects in some detail, dynamic light scattering (DLS) and small angle neutron scattering (SANS) were used. DLS was performed on purified vesicles obtained from the SEC column (after removing all the free solute); the sizes of solute-containing vesicles were compared with the sizes of neat vesicles (no solute). DLS gave radii of 74 nm for neat V^+ vesicles and 70 nm for neat V^− vesicles. Passing these neat vesicles through an SEC column changed their sizes slightly and the new radii were 81 nm for V^+ and 98 nm for V^− vesicles. […] However, while 1 mM of the anionic solute Lucifer yellow (LY) had no effect on V^− vesicles, it induced a 2.5 fold increase in the radii of V^+ vesicles.

Data set [4] in a line: Dye adsorption: dye added to preformed vesicles, then SEC. It counts as physicochemical.
Data set [5] is described as follows: Apparent encapsulation efficiency (ε) of solutes in vesicles by SEC and UV-vis. The following applies: inner water pool only. The class given is physicochemical.
Data set [6] can be described thus: Long-term CF release from vesicles by self-quenching fluorescence, R(t). The class given is physicochemical. The protocol:
The self-quenching behavior of carboxyfluorescein (CF) was used to monitor dye efflux from vesicles. CF is a widely used probe for vesicle encapsulation due to its ability to undergo efficient self-quenching of fluorescence at millimolar concentrations. For example, when 60 mM CF is entrapped in vesicles, its fluorescence intensity is reduced by 60-80%, but as the dye is released from the vesicle, and thus diluted by the surrounding buffer, its fluorescence intensity increases.
Samples were checked on a specific day by placing a fixed aliquot (1.5 mL) into a 1 cm cuvette and monitoring its emission at 520 nm while exciting at 490 nm using a Spex Fluorolog-3 spectrometer. The intensity was monitored for several minutes to establish the baseline fluorescence intensity, which contains a contribution from both free and encapsulated dyes. After the baseline was established, 100 uL of 10% (w/w) aqueous Triton X-100 was added to disrupt the vesicles. Vesicle disruption results in the release of all dye molecules into solution and a concomitant increase in fluorescence. For these experiments, a substantial volume of sample was prepared on the first day and run on the SEC column to remove free dye. […] The traces show the emission intensity before and after the addition of Triton X-100, a nonionic detergent that disrupts both lipid and surfactant vesicles. […] As expected, the largest jump occurs for the freshly prepared vesicle solution where all the dye is encapsulated in the vesicles. We compare the magnitude of the jump on Day x with the highest jump (Day 0) and thereby obtain the fraction of the dye released on day x, R(t=x), the calculation of which is described below. […]
To monitor long-term leakage rates, the fraction of dye released as a function of time, R(t), was calculated for a given day. This quantity measures the fraction of encapsulation on Day x relative to the initial value on Day 0:
where F(initial) and F(final) are the fluorescence intensities before and after adding the Triton X-100. […]

Data set [7] is classed as physicochemical. As for the experimental part: A more general procedure based on SEC that can be applied to a wide range of solutes, including non-self-quenching and non-fluorescent ones was also used. The initial vesicle-solute mixture was purified using SEC (as described above) to remove the free, unencapsulated solute. The sample was then checked for release of solute from the vesicles over the course of several weeks. For this purpose, small-scale separations using quick-spin columns pre-packed with Sephadex G50 (fine) were performed (column from Roche, additional beads for repacking the columns from Sigma). On a specific day, a 100 μL aliquot was run through a quick-spin column by centrifugation (3000 rpm, 15 s), and the eluted fraction was evaluated using UV-vis spectroscopy. Any solute that had been released from the vesicles was retained by the quick-spin column. Therefore, the amount of solute eluted by the column corresponded to the solute still encapsulated by the vesicles. The UV-vis absorption value for the eluted sample was divided by the corresponding value obtained on day zero (immediately after SEC) to yield a fraction of solute that remains encapsulated in the vesicles. This method directly yielded the apparent encapsulation, ε, as a function of time. […]

For data set [8] the following is noted: cited from earlier work.

Turning to Lucifer yellow [LY], in data set [1], the “ε (Apparent Encapsulation Efficiency) CTAT-Rich V^+” value is recorded as 40 ± 20% and the “ε (Apparent Encapsulation Efficiency) SDBS-Rich V^−” value is on record as 4%. For the same compound, the “Separation of LY and Dox by catanionic vesicles in SEC” value in data set [2] is on record as “Very efficient separation”. In addition, the “Effect of solute on V^− vesicle radii” value in data set [3] (1 mM solute) was “no effect”. In data set [3] (1 mM solute, vs neat vesicles), the “Increase in the radii of V^+ vesicles” value is given as 2.5 fold. For the same compound, in data set [3], the “Vesicle Radius after SEC by DLS CTAT-Rich V^+” value is given as 208 ± 18 nm and the “Vesicle Radius after SEC by DLS SDBS-Rich V^−” value came to 96 ± 3 nm.

In the case of 5(6)-carboxyfluorescein [CF], the “ε (Apparent Encapsulation Efficiency) SDBS-Rich V^−” value in data set [1] worked out at 1.0 ± 0.4%. The “Electrostatic adsorption contribution to overall apparent encapsulation efficiency ε” value in data set [4] (CF added to pre-formed V^+ vesicles vs vesicles formed with CF) is listed as “about 75%”. For the same compound, in data set [2], the “Dye carried through SEC column within the V^+ vesicle band” value is 31% and the “Dye in the V^− vesicle band emerging from SEC column” value is “negligible”. Besides, the “Actual encapsulation efficiency for dye in the V^+ water pool” value in data set [5] is listed as “ca. 5%”. Also, the “Release rate slower than from EYPC vesicles” value in data set [6] (CF from V^+ vesicles vs EYPC vesicles) is listed as “at least 40 times”. Further, in data set [6] (EYPC vesicles), the “Period over which CF dye is released” value is on record as “about 5 days”. Also, in data set [6] (V^+ vesicles, after 27 days), the “Release of CF” value is listed as “approximately 20%”. Also, in data set [7], the “Half life in the vesicles” value stood at 114 days. Moreover, the “Retention of solute relative to liposomes” value in data set [7] (catanionic vesicles vs EYPC liposomes) is given as 40-60 times. In data set [3] (1 mM solute), the “Effect of solute on V^+ vesicle radii” value is recorded as “essentially unchanged” and the “Effect of solute on V^− vesicle radii” value is “essentially unchanged”. In data set [3], the “Vesicle Radius after SEC by DLS CTAT-Rich V^+” value was 87 ± 5 nm and the “Vesicle Radius after SEC by DLS SDBS-Rich V^−” value is given as 91 ± 8 nm.

Turning to `CCN=c1cc2oc3cc(NCC)c(C)cc3c(-c3ccccc3C(=O)OCC)c-2cc1C.Cl` [R6G, rhodamine 6G], in data set [1], the “ε (Apparent Encapsulation Efficiency) CTAT-Rich V^+” value was 0.07 ± 0.1%; the “ε (Apparent Encapsulation Efficiency) SDBS-Rich V^−” value was 72% and 72 ± 3%. In addition, the “ε when dye added to pre-made vesicles, as share of Table 1 value” in data set [4] (R6G added to pre-made V^− vesicles) was “ca. 85%”. Further, in data set [2], the “Dye carried through SEC column within the V^+ vesicle band” value was “no detectable” and the “Dye in the V^− vesicle band emerging from SEC column” value was found to be 88%. Also, in data set [3], the “Vesicle Radius after SEC by DLS CTAT-Rich V^+” value is reported as 156 ± 24 nm and the “Vesicle Radius after SEC by DLS SDBS-Rich V^−” value is reported as 109 ± 16 nm.

Regarding `O=S(=O)([O-])c1cc(S(=O)(=O)O)ccc1C1=c2cc3c4c(c2Oc2c1cc1c5c2CCCN5CCC1)CCC[N+]=4CCC3` [SR 101, sulforhodamine 101], in data set [1], the “ε (Apparent Encapsulation Efficiency) CTAT-Rich V^+” value is recorded as 32.8% and the “ε (Apparent Encapsulation Efficiency) SDBS-Rich V^−” value was determined as 8.2%. Further, in data set [3], the “Vesicle Radius after SEC by DLS CTAT-Rich V^+” value came to 122 ± 38 nm and the “Vesicle Radius after SEC by DLS SDBS-Rich V^−” value is listed as 84 ± 7 nm.

For `COc1cccc2c1C(=O)c1c(O)c3c(c(O)c1C2=O)C[C@@](O)(C(=O)CO)C[C@@H]3O[C@H]1C[C@H](N)[C@H](O)[C@H](C)O1` [Dox, doxorubicin hydrochloride], in data set [8], the pKa is reported as about 7.619. Also, the “ε (Apparent Encapsulation Efficiency) CTAT-Rich V^+” value in data set [1] was 0%. The “ε (Apparent Encapsulation Efficiency) SDBS-Rich V^−” value in data set [1] (hydrochloride) came out at 55%. The “Separation of LY and Dox by catanionic vesicles in SEC” value in data set [2] was “Very efficient separation”. Also, in data set [3], the “Vesicle Radius after SEC by DLS CTAT-Rich V^+” value worked out at 143 ± 32 nm and the “Vesicle Radius after SEC by DLS SDBS-Rich V^−” value came out at 93 ± 4 nm.

The pKa is the negative logarithm of the acid dissociation constant.

The values are drawn from patent publication US20080305157A1, “Encapsulation and separation of charged organic solutes inside catanionic vesicles” (University of Maryland Office of Technology …, priority 2007, published 2008).
